PubChem BioAssay AID2060510 (Molecular Pharmacology Branch, DTP, NCI, 2025)
pIC50: −log10 of the molar value.

Tested on: 439559-082-T-J2-PDC spheroids viability
Assay: Anticancer human tumor 439559-082-T-J2-PDC patient-derived colon adenocarcinoma cell line growth inhibition [GQUAD]
Conditions: for pIC50: curve of first compound; for viability, T/C: stronger effect = lower value
In short: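 Tumor cells were grown as complex spheroids with HUVEC endothelial cells and mesenchymal stem cells as stroma. G-quadruplex stabilizers were combined with targeted agents over half-log dilutions from near the clinical Cmax, or from 10 microM.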

[1] = second compound 0.0316 µM, first compound 0.0316 µM
[2] = second compound 0.0316 µM, first compound 0.1 µM
[3] = second compound 0.0316 µM, first compound 0.316 µM
[4] = second compound 0.0316 µM, first compound 1 µM
[5] = second compound 0.0316 µM, first compound 3.16 µM
[6] = second compound 0.0316 µM, first compound 10 µM
[7] = second compound 0.1 µM, first compound 0.0316 µM
[8] = second compound 0.1 µM, first compound 0.1 µM
[9] = second compound 0.1 µM, first compound 0.316 µM
[10] = second compound 0.1 µM, first compound 1 µM
[11] = second compound 0.1 µM, first compound 3.16 µM
[12] = second compound 0.1 µM, first compound 10 µM
[13] = second compound 0.316 µM, first compound 0.0316 µM
[14] = second compound 0.316 µM, first compound 0.1 µM
[15] = second compound 0.316 µM, first compound 0.316 µM
[16] = second compound 0.316 µM, first compound 1 µM
[17] = second compound 0.316 µM, first compound 3.16 µM
[18] = second compound 0.316 µM, first compound 10 µM
[19] = second compound 1 µM, first compound 0.0316 µM
[20] = second compound 1 µM, first compound 0.1 µM
[21] = second compound 1 µM, first compound 0.316 µM
[22] = second compound 1 µM, first compound 1 µM
[23] = second compound 1 µM, first compound 3.16 µM
[24] = second compound 1 µM, first compound 10 µM
[25] = second compound 3.16 µM, first compound 0.0316 µM
[26] = second compound 3.16 µM, first compound 0.1 µM
[27] = second compound 3.16 µM, first compound 0.316 µM
[28] = second compound 3.16 µM, first compound 1 µM
[29] = second compound 3.16 µM, first compound 3.16 µM
[30] = second compound 3.16 µM, first compound 10 µM
[31] = second compound 10 µM, first compound 0.0316 µM
[32] = second compound 10 µM, first compound 0.1 µM
[33] = second compound 10 µM, first compound 0.316 µM
[34] = second compound 10 µM, first compound 1 µM
[35] = second compound 10 µM, first compound 3.16 µM
[36] = second compound 10 µM, first compound 10 µM
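Further: spheroids exposed to the agents for 7 days before readout.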
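Wherever viability, T/C is given: percent of luminescence signal in DMSO vehicle wells taken as 100% viability.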

CC(C)n1c(=O)n(C)c2cnc3cc(F)c(-c4ccc(OCCCN5CCCCC5)nc4)cc3c21 + Cc1[nH]c2ccc(F)cc2c1-c1nc2c3cccnc3c3ncccc3c2[nH]1
pIC50 (second compound 0.0316 µM): < 5.00
pIC50 (second compound 0.1 µM): < 5.00
pIC50 (second compound 0.316 µM): < 5.00
pIC50 (second compound 1 µM): < 5.00
pIC50 (second compound 3.16 µM): < 5.00
pIC50 (second compound 10 µM): < 5.00
viability, T/C [1]: 112%
viability, T/C [2]: 94.7%
viability, T/C [3]: 126%
viability, T/C [4]: 125%
viability, T/C [5]: 130%
viability, T/C [6]: 102%
viability, T/C [7]: 116%
viability, T/C [8]: 110%
viability, T/C [9]: 117%
viability, T/C [10]: 123%
viability, T/C [11]: 139%
viability, T/C [12]: 100%
viability, T/C [13]: 98.7%
viability, T/C [14]: 104%
viability, T/C [15]: 127%
viability, T/C [16]: 122%
viability, T/C [17]: 128%
viability, T/C [18]: 96.4%
viability, T/C [19]: 106%
viability, T/C [20]: 103%
viability, T/C [21]: 118%
viability, T/C [22]: 125%
viability, T/C [23]: 113%
viability, T/C [24]: 113%
viability, T/C [25]: 90%
viability, T/C [26]: 88%
viability, T/C [27]: 107%
viability, T/C [28]: 102%
viability, T/C [29]: 89.9%
viability, T/C [30]: 66.7%
viability, T/C [31]: 85.1%
viability, T/C [32]: 83.4%
viability, T/C [33]: 98.8%
viability, T/C [34]: 98.8%
viability, T/C [35]: 99.6%
viability, T/C [36]: 84.8%

CC1COCCN1c1cc(C2(O)CC3CCC(C2)O3)c2cnn(-c3ccn[nH]3)c2n1 (centres undefined) + Cc1[nH]c2ccc(F)cc2c1-c1nc2c3cccnc3c3ncccc3c2[nH]1
pIC50 (second compound 0.0316 µM): 5.77
pIC50 (second compound 0.1 µM): 5.59
pIC50 (second compound 0.316 µM): 5.84
pIC50 (second compound 1 µM): 5.83
pIC50 (second compound 3.16 µM): 6.06
pIC50 (second compound 10 µM): 6.06
viability, T/C [1]: 84.5%
viability, T/C [2]: 84.2%
viability, T/C [3]: 78.2%
viability, T/C [4]: 58.6%
viability, T/C [5]: 38.9%
viability, T/C [6]: 39.5%
viability, T/C [7]: 89.5%
viability, T/C [8]: 76.3%
viability, T/C [9]: 71.1%
viability, T/C [10]: 61.9%
viability, T/C [11]: 46.7%
viability, T/C [12]: 35.2%
viability, T/C [13]: 97.2%
viability, T/C [14]: 80.2%
viability, T/C [15]: 70.8%
viability, T/C [16]: 49.9%
viability, T/C [17]: 44.6%
viability, T/C [18]: 37.3%
viability, T/C [19]: 83.8%
viability, T/C [20]: 77.3%
viability, T/C [21]: 70.2%
viability, T/C [22]: 55%
viability, T/C [23]: 40.3%
viability, T/C [24]: 33.4%
viability, T/C [25]: 85.7%
viability, T/C [26]: 67.8%
viability, T/C [27]: 63.5%
viability, T/C [28]: 51%
viability, T/C [29]: 32.8%
viability, T/C [30]: 27%
viability, T/C [31]: 75.4%
viability, T/C [32]: 74.5%
viability, T/C [33]: 57.1%
viability, T/C [34]: 52.1%
viability, T/C [35]: 33.4%
viability, T/C [36]: 27.1%
